Where a SMILES comes first, the peptide text is derived from it. [ ]: non-standard residue; d: D form.
Tests used:
[1] = system: spontaneously hypertensive rats (SHR); assay: Cardiac inflammation by monocyte infiltration in SHR, ED-1 immunohistochemistry; assay type: in vivo, rat; settings: SHR, 1,200 ng/kg/min, 14 days
Experimental: (§1) Experimental animal model. All procedures were performed in accordance with the Guide for the Care and Use of Laboratory Animals published by the U.S. National Institutes of Health (NIH Publication 85 23, 1985) and approved by our Institutional Bioethics Committee. The animals were housed under the continuous professional monitoring of the Medical Veterinary staff in the animal facility of the Pontificia Universidad Católica de Chile, under the following conditions: 12-h light-dark cycle; 21° C. ambient temperature; 50% humidity; adequate ventilation; noise-free environment; and food and water ad libitum. Male spontaneously hypertensive rats (SHR, age 12 weeks) and normotensive Wistar Kyoto rats (WKY, 12 weeks age) were used. […] Systolic blood pressure (SBP), diastolic blood pressure (DBP) and body weight (BW) were measured at the end of the treatment period and the animals were then sacrificed.
Evaluation of cardiac inflammation by monocyte infiltration. Monocyte infiltration was assessed as a marker of cardiac inflammation. Monocytes were detected by immunohistochemistry using ED-1. […] In hypertense SHR increased ED-1 positive cells was detected in the hearts, indicating the presence of monocyte infiltration, a marker of cardiac inflammation.

[2] = system: spontaneously hypertensive rats (SHR); assay: Blood pressure in spontaneously hypertensive rats; assay type: in vivo, rat; settings: SHR, 300, 600, 1200 ng/kg/min, osmotic minipumps, 14 days
Experimental: as §1
Hemodynamic evaluations. SBP and DBP were measured twice per week by a researcher blinded to study group, using a CODA 2 noninvasive pressure device with volume-pressure recording (Kent Scientific Corporation, Torrington, CT, USA). […]

[3] = system: spontaneously hypertensive rats (SHR); assay: Fibroblast proliferation in cardiac tissue of SHR, Ki67 immunohistochemistry; assay type: in vivo, rat; settings: SHR, 1,200 ng/kg/min, 14 days
Experimental: as §1, with “libitum.” for “libitum. Male spontaneously hypertensive rats (SHR, age 12 weeks) and normotensive Wistar Kyoto rats (WKY, 12 weeks age) were used.”
Immunohistochemistry for Ki67. Proliferation of fibroblast, another marker of fibrosis, was assessed by measuring the presence of Ki-67 positive nuclei. […] Two blinder researchers counted manually positive cells in 10 high-power fields (×40). […] The percentage of positive Ki67 cells was calculated. As observed with the above cardiac fibrosis marker, collagen content assessed by picrosirius red staining, in hypertensive SHR, an increase in fibroblast with Ki-67 positive nuclei were found, confirming the occurrence of cardiac fibrosis.

[4] = system: cardiac myocytes isolated from neonatal Sprague-Dawley rat ventricles; assay: Norepinephrine-induced cardiomyocyte hypertrophy, western blot of β-MHC and ANP; assay type: cell-based; settings: 1, 10 or 100 μM peptide, 10 μM norepinephrine
Experimental: Cardiac myocytes were isolated from neonatal Sprague-Dawley rat ventricles. Cardiac myocytes were plated at 70% final density in gelatin-coated wells (12-well plates) or in 60-mm Petri dishes and maintained at 37° C. in a humidified atmosphere of 5% CO2/95% air for 24 h in Dulbecco's Modified Eagle's medium [(DMEM)/M199](4:1) containing 10% fetal bovine serum and 5% fetal calf serum. Serum was withdrawn 24 h before preincubation with 1, 10 or 100 μM retro-inverse angiotensin-(1-9) for 1 h; then, 10 μM norepinephrine (Sigma, St Louis, Missouri, USA) were added and the cultures were incubated for 24 h. Then cells were washed with PBS at 4° C. and then cells were lysed with 50 μL of RIPA lysis buffer (Tris-HCl 10 mM pH 7.4, EDTA 5 mM, NaCl 50 mM, deoxycholic acid 1%, Triton X-100 1% v/v) supplemented with phosphatase and protease inhibitors (Roche). After centrifugation at 12,000 r.p.m. for 15 min at 4° C., the supernatat was recovered; total protein content was determined by using Bradford (BioRad protein assay, BioRad, Hercules, CA, USA). Proteins were denatured in SDS-PAGE 4× buffer and resolved in 12% PAGE-SDS. After electrotransference, beta-myosin heavy chain (β-MHC) and atrial natriuretic peptide (ANP) were used as hypertrophic markers. β-tubulin was used as loading control. As expected, norepinephrine 10 μM for […], a cardiomyocyte hypertrophy inducer, triggered β-MHC and ANP increase (FIG. 3).

With `CC[C@@H](C)[C@@H](NC(=O)[C@@H](Cc1c[nH]cn1)NC(=O)[C@H]1CCCN1C(=O)[C@@H](Cc1ccccc1)NC(=O)[C@H](N)Cc1c[nH]cn1)C(=O)N[C@H](Cc1ccc(O)cc1)C(=O)N[C@@H](C(=O)N[C@H](CCCNC(=N)N)C(=O)N[C@H](CC(=O)O)C(=O)O)C(C)C` [retro-inverse angiotensin-(1-9), NH2-^DH^DF^DP^DH^DI^DY^DV^DR^DD-COOH] (H-[dH][dF][dP][dH][dI][dY][dV][dR][dD]-OH) the “accumulation of ED-1 positive cells in cardiac tissue” value [1] was “completely revert”, the “diastolic blood pressure (DBP)” value [2] was “reduced SBP and DBP in a dose-dependent manner” and the “systolic blood pressure (SBP)” value [2] was “reduced SBP and DBP in a dose-dependent manner”. For the same compound, the “increase of fibroblast with Ki-67 positive nuclei induced by hypertension” value [3] was “reversed the increase”, the “increase of ANP induced by norepinephrine” value [4] was “inhibited, in a dose response manner” and the “increase of β-MHC induced by norepinephrine” value [4] was “inhibited, in a dose response manner”.

Reference: US20250206779A1, “ANGIOTENSIN-(1-9) ANALOGUE BASED ON D AMINO ACIDS, PHARMACEUTICAL COMPOSITIONS AND USES THEREOF” (UNIVERSIDAD DE CHILE, priority 2021, published 2025)
